The numbers were not newly measured in US10688072B2, “Misoprostol dispersible tablet” (Azanta Danmark A/S, priority 2014, dated 2020), which cites them from elsewhere.

Read-outs that look alike come from different tables or passages of the source.

For the data set the following is noted: 400 μg.

Consider `CCCCC(C)(O)C/C=C/[C@H]1[C@H](O)CC(=O)[C@@H]1CCCCCCC(=O)OC` (mixture of isomers) [misoprostol], for which the “Peak in plasma concentration” value is, setting by setting: (oral administration compared with vaginal) “larger peak than vaginal administration”; (sublingual administration compared with oral and vaginal) “larger peak in plasma concentration of misoprostol than oral and vaginal”. Moreover, the “Inter-subject variability in % at peak concentration” value reads like this: (oral route compared with vaginal) “smaller than for vaginal application”; (sublingual route compared with oral and vaginal) “smaller following the sublingual route of administration than for oral and vaginal application”.
